Results: the NIST ThermoML archive (doi:10.1016/j.fluid.2016.05.030)

Key:
[1] = molar heat capacity at constant pressure; conditions: 298.15 K; 101.33 kPa; Liquid; Drop calorimetry
[2] = 101.33 kPa, Liquid; for viscosity: Concentric cylinders viscometry; for mass density: Vibrating tube method

CCCCCCCc1cccc[n+]1CC.O=S(=O)([N-]S(=O)(=O)C(F)(F)F)C(F)(F)F
Conditions	molar heat capacity at constant pressure [J/K/mol]
[1]	717.5

[2]
Conditions	mass density [kg/m3]	viscosity [mPa·s]
293.15 K	1325.1	180.53
298.15 K	1320.8	134.1
303.15 K	1316.5	102.47
308.15 K	1312.2	79.9
313.15 K	1307.9	63.6
318.15 K	1303.6	51.17
323.15 K	1299.4	41.88
328.15 K	1295.2	34.73
333.15 K	1290.9	29.21
338.15 K	1286.7	24.71
343.15 K	1282.5	21.16
348.15 K	1278.3	18.28
353.15 K	1274.2	15.97
358.15 K	1270.1	13.97
363.15 K	1266	12.34

CCc1cccc[n+]1CC.O=S(=O)([N-]S(=O)(=O)C(F)(F)F)C(F)(F)F [1,2-diethylpyridin-1-ium bis((trifluoromethyl)sulfonyl)imide]
Conditions	molar heat capacity at constant pressure [J/K/mol]
[1]	566.1

[2]
Conditions	mass density [kg/m3]	viscosity [mPa·s]
293.15 K	1475.5	87.87
298.15 K	1470.6	68.77
303.15 K	1465.8	54.95
308.15 K	1461.1	44.69
313.15 K	1456.3	36.91
318.15 K	1451.6	30.88
323.15 K	1446.9	26.16
328.15 K	1442.2	22.38
333.15 K	1437.5	19.4
338.15 K	1432.9	16.9
343.15 K	1428.3	14.86
348.15 K	1423.7	13.16
353.15 K	1419.1	11.75
358.15 K	1414.6	10.52
363.15 K	1410	9.483

CCCCCCc1cccc[n+]1CC.O=S(=O)([N-]S(=O)(=O)C(F)(F)F)C(F)(F)F
Conditions	molar heat capacity at constant pressure [J/K/mol]
[1]	685.5

[2]
Conditions	mass density [kg/m3]	viscosity [mPa·s]
293.15 K	1348.7	159.82
298.15 K	1344.3	119.41
303.15 K	1339.9	91.77
308.15 K	1335.5	71.93
313.15 K	1331.2	57.52
318.15 K	1326.8	46.51
323.15 K	1322.5	38.22
328.15 K	1318.2	31.83
333.15 K	1313.9	26.87
338.15 K	1309.7	22.8
343.15 K	1305.6	19.59
348.15 K	1301.4	16.98
353.15 K	1297.1	14.86
358.15 K	1292.9	13.04
363.15 K	1288.8	11.54

CCCCCCCCc1cccc[n+]1CC.O=S(=O)([N-]S(=O)(=O)C(F)(F)F)C(F)(F)F
Conditions	molar heat capacity at constant pressure [J/K/mol]
[1]	749.4

[2]
Conditions	mass density [kg/m3]	viscosity [mPa·s]
293.15 K	1301.7	216.19
298.15 K	1297.4	159.29
303.15 K	1293.2	120.76
308.15 K	1289	93.45
313.15 K	1284.8	73.88
318.15 K	1280.6	59
323.15 K	1276.4	47.97
328.15 K	1272.3	39.54
333.15 K	1268.1	33.06
338.15 K	1264	27.82
343.15 K	1259.9	23.71
348.15 K	1255.8	20.39
353.15 K	1251.7	17.72
358.15 K	1247.6	15.44
363.15 K	1243.6	13.58
